{"source": "paper PMC11288129", "about": "“Diversely evolved xibalbin variants from remipede venom inhibit potassium channels and activate PKA-II and Erk1/2 signaling” (BMC Biology, 2024)", "type_in_all_cases": "cell-based", "key": {"[1]": {"tested_on": "Erk1/2 (T202/Y204) in rat DRG neurons", "assay": "High-content imaging of pERK1/2 in DRG sensory neurons", "details": "positive control Fsk 6 µM; 5 and 30 min", "experimental": "(§1) To gauge sensory neuron activity in response to various activating stimuli, including electrical activity, phosphorylation state detection of protein kinase A type II (PKA-II) and MAP kinase Erk1/2 can act as surrogate measurements. Consequently, we tested for increased phosphorylation states in a concentration-dependent manner following exposure to xibalbins. Dissociated DRG neurons were cultured overnight and then exposed to increasing concentrations of the corresponding xibalbins for 5 min and 30 min, respectively. As a positive control, forskolin (Fsk) was also used to induce cAMP synthesis. The activity of PKA-II was monitored by antibodies directed against the phosphorylation site of the inhibitory regulatory subunits RIIα/β, which is exclusively accessible when the catalytic kinase domain is released during kinase activation. For measuring Erk1/2 activity, phospho-sites on Erk1/2 (T202/Y204) were monitored through immunofluorescence, as these sites are phosphorylated during activation. Cellular images were captured using HCI microscopy (Fig. 8A), and the average intensity of each phospho-antibody was quantified (Fig. 8B).\n(§2) Fig. 8 A Representative images of rat DRG neurons stimulated with PBS (Ctrl) and xib1b (0.8 µg/µL). Cells were stained for UCHL1, pRII, pERK1/2, and Hoechst followed by fixation and staining with standard immunocytochemistry protocols. Green-encircled neurons indicate automatically selected objects. Scale bar: 100 µm. B Mean intensities of UCHL1, pRII, and pERK1/2. The same UCHL1 intensities were observed among tested groups. Forskolin (Fsk), an activator of adenylyl cyclase, was used as a positive control. Fsk at 6 µM concentration induced an increase in pRII and pERK1/2 intensities at 5 and 30 min. Number of analyzed cells per replica: 750 ± 200. Eight independent replicas. C–F Concentration responses of xibalbin toxins (0.005 to 0.8 µg/µL) and mean intensities of pRII and pERK1/2 at 5 min and 30 min. G–H Size versus pRII and pErk1/2 intensities of cells treated with 0.8 µg/µL of xib1 and xib13. Small-sized cells were responding to xibalbins. Statistical significance was assessed using one-way ANOVA with Dunnett’s post hoc test. Data represent mean ± S.E.M (standard error of the mean), n = 4, see “Methods” for details and Additional File 6: Table S2 for individual data values\n(§3) Male Sprague Dawley rats (250–400 g, 8–16 weeks old) were obtained from Envigo. Rats were kept in 12 h of light/darkness cycles. All experiments were performed in accordance with the German animal welfare law with permission of the District Government for Nature and Environment, NRW (84–02.05.20.13.045, 4.18.003). Rats were scarified by slow inhalation of CO2 which was followed by decapitation. DRGs were extracted from rats, deheated, pooled, and incubated in Neurobasal A/B27 medium (Invitrogen, #12349–015) supplemented with B-27 (Invitrogen #17504), L-glutamine 1:400, L-glutamate 1:270.3, and penicillin/streptomycin 1:100 containing 0.2 U/mL collagenase P (collagenase P, Roche, #1213857) and incubated for 1 h at 37 °C, 5% CO2. DRGs were dissociated with pasteur pipettes and axon stumps were separated by BSA (Sigma-Aldrich, # A2153-100G) gradient centrifugation (14% BSA, 120 g, 8 min). Cells were resuspended in NBA medium, plated in 96-well imaging plate (Greiner BioOne Sensoplate, Black, #655896) precoated with poly-L-ornithine hydrochloride (0.1 mg/ml Sigma, #P2533)/laminin (5 µg/ml Invitrogen, #23017–015), and incubated overnight at 37 °C, 5% CO2.\n(§4) DRGs were stimulated after overnight incubation. Compounds were prepared as tenfold concentrated stock solutions, diluted in PBS (PAA, cat# H15-002), in v-bottom plates; 50 µL media from culture wells were mixed with the […] stock solutions, and 50 µL added back to the respective wells. Stimulation was performed with automated multichannel pipette and cells were kept in heated block during the stimulation. […]"}, "HEK293T cells": {"tested_on": "HEK293T cells", "assay": "Ca2+ influx induction, Fluo-8 calcium imaging", "details": "HEK293 cells", "experimental": "We examined the potential of xibalbins in a concentration range of 0.25 to 25 µg/ml regarding their effects on Ca^2+ influx in HEK293 cells, which express calcium channels. […] However, exposure to none of the four xibalbin variants by itself did increase [Ca^2+]i as measured by Fluo-8 calcium imaging assay. Additionally, none of the xibalbin variants modulated forskolin-induced [Ca^2+]i increase (Additional File 7: Figure S5 A). We also evaluated the effect of xibalbins on cAMP synthesis. However, xibalbins had no effect on increasing cAMP synthesis in HEK293 cells or on preventing the forskolin-induced cAMP synthesis (Additional File 7: Figure S5 B).\nSupplementary file 12915_2024_1955_MOESM7_ESM.jpg: Additional file 7: Figure S5. […] A threshold of fluorescence intensity was defined using cells before treatment, all cells above the threshold level were counted. […] For the induction assay (left panel), the luminescence was detected (background, 3 measurements every 5 min) and then the xibalbins (0.25, 2.5, 25 μg/ml) or 5 μM forskolin were added to detect the luminescence (3 measurements/5 min) using a plate reader (Spark, Tecan, Männedorf, Switzerland). For the inhibition assay (right panel), the xibalbin-treated cells were incubated with 5 μM forskolin to detect the luminescence (3 measurements/5 min). […] After 24 h NO was determined in supernatants with the Griess method. […]"}, "[2]": {"tested_on": "PKA-II (phospho-RIIα/β) in rat DRG neurons", "assay": "High-content imaging of PKA-II activity (pRII) in DRG sensory neurons", "experimental": "as §1, §2, §3, §4"}}, "data": [{"smiles": "C=C[C@@]1(C)CC(=O)[C@]2(O)[C@@]3(C)[C@@H](O)CCC(C)(C)[C@@H]3[C@H](O)[C@H](OC(C)=O)[C@@]2(C)O1", "note": "[Forskolin, reference compound]", "values": [{"measurement": "pERK1/2 intensity", "setting": "[1]", "value": "increase"}, {"measurement": "increase of [Ca2+]i by positive control", "setting": "HEK293T cells", "value": "increased [Ca^2+]i"}, {"measurement": "pRII intensity", "setting": "[2]; positive control Fsk 6 µM, 5 and 30 min", "value": "increase"}, {"measurement": "pRII response by neuron size", "setting": "[2]; xibalbins 0.8 µg/µL", "value": "activated both small and large-sized sensory neurons"}]}]}
